# Literature values in patent US20230390251A1, “METHODS OF TREATING RIBONUCLEOTIDE REDUCTASE-RELATED DISEASES WITH A RIBONUCLEOTIDE REDUCTASE INHIBITOR” (TAIHO PHARMACEUTICAL CO., LTD., priority 2020, published 2023).
# Assays:
# [1] = from the literature (NPL 10); off-target effect on Fe ion-containing proteins; cited from earlier work
# [2] = target: T1, Ribonucleotide reductase (RNR) (Homo sapiens, UniProt P23921+P31350); settings: from the literature (NPL 7; PL 1); cited from earlier work
# T1 sequence (P23921 1-792): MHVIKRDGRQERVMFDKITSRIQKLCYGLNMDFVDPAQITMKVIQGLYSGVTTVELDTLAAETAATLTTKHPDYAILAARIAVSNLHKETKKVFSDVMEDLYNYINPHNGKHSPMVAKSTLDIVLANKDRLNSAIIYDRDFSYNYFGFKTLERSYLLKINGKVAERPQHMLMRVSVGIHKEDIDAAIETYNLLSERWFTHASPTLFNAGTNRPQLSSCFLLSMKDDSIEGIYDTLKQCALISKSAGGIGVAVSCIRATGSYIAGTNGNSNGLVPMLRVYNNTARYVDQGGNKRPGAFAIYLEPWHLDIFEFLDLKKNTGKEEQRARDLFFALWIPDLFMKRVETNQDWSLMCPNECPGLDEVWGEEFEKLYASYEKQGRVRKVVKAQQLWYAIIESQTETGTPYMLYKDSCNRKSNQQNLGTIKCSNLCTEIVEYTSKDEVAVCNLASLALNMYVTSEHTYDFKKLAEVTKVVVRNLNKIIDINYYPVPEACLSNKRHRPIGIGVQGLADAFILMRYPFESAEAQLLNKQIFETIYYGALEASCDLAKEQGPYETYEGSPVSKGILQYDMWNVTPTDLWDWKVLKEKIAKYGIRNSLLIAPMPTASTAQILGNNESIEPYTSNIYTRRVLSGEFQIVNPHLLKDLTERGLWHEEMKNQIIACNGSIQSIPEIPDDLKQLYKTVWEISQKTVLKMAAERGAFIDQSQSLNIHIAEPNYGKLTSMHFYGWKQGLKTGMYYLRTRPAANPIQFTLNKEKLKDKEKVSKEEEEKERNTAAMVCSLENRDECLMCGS
# T1 sequence (P31350 1-389): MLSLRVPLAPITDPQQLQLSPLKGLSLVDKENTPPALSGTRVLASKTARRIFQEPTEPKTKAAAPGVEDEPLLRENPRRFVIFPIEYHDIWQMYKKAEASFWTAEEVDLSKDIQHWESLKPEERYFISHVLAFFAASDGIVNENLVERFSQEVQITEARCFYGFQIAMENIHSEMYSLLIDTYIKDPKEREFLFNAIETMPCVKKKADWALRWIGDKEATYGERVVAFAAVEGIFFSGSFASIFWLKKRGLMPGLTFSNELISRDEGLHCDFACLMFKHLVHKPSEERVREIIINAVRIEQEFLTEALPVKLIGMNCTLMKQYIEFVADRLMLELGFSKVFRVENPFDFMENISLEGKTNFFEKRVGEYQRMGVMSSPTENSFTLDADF
structure (smiles),measurement,setting,value
"NC(=S)NN=Cc1ncccc1N [Compound 3-AP, 3-aminopyridine-2-carboxaldehyde thiosemicarbazone]",side effects in clinical cases,[1],"side effects such as hypoxia, dyspnea, methemoglobinemia"
"NC(=O)NO [HU, hydroxyurea, reference compound]",RNR inhibitory activity,[2],weak
